# Data published in patent publication US20030050248A1 (priority 2000, published 2003).
# Read-outs that look alike come from different tables or passages of the source. Peptide text beside a SMILES is read from it. * marks the point of attachment. Fmoc = O=C(OCC1c2ccccc2-c2ccccc21)*; X1 = O=C(Sc1ccccc1)*
# What was measured:
# S. aureus [1] = experiment: microbe, parasite or virus in culture; conditions: Staphylococcus aureus, Erythrocyte, in Oryctolagus cuniculus
# S. epidermidis (51625) = type: cell-based
# S. haemolyticus = type: cell-based
# S. aureus [2] = type: cell-based
# RNAIII = type: cell-based, S. aureus
# S. aureus [3] = system: S. aureus
# S. aureus [4] = experiment: Mouse model, Staph mixed with drug prior to IP injection; type: in vivo, mice; conditions: for % Survival at 24 hr.: mixed with Staph prior to IP injection
# Experimental: (§1) The assay was carried out by injecting a fixed amount of a S. aureus culture, typically containing from about 5×10^9 cells from an early exponential growth stage culture, by intraperitoneal (IP) injection into mice, based on the method described by Thakker et al., 1998.
# In one study, the S. aureus was mixed with VIF-1 or FTB, prior to IP injection.
# S. aureus [5] = experiment: Mouse model, Staph injected IP 20 min prior to drug injection (IP); type: in vivo, mice; conditions: for % Survival at 24 hr.: 20 min after Staph
# Experimental: as §1
# In another approach, S. aureus was injected IP 20 minutes prior to IP injection of VIF-1 or FTB.
# The commonly used anti-Staphylococcal antibiotics, methicillin and vancomycin, were tested in this model.
# [6] = read-out: IC50 (relative activity), text b100/b101, assay not named, values match the α-hemolysin column of Table 4
# [7] = read-out: Inhibition of α-Hemolysin production, Table 4, (n) in cell = number of determinations
smiles,measurement,setting,value
O=C(N[C@@H](Cc1ccc2ccccc2c1)C(=O)O)OCC1c2ccccc2-c2ccccc21 [Fmoc-3-(2-naphthyl)alanine],IC50,S. aureus [1]; [6],4.2 µg/mL
O=C(N[C@@H](C(=O)O)c1ccccc1)OCC1c2ccccc2-c2ccccc21 [Fmoc-D-phenylglycine],IC50,S. aureus [1]; [6],5.5 µg/mL
O=C(N[C@H](C(=O)O)c1ccccc1)OCC1c2ccccc2-c2ccccc21 [Fmoc-L-phenylglycine],IC50,S. aureus [1]; [6],5 µg/mL
O=C(N[C@@H](CC1CCCCC1)C(=O)O)OCC1c2ccccc2-c2ccccc21 [Fmoc-beta-cyclohexyl-L-alanine],IC50,S. aureus [1]; [6],4 µg/mL
"O=C(Nc1ccccc1C(=O)O)OCC1c2ccccc2-c2ccccc21 [Reference #4, Fmoc-2-aminobenzoic acid]","IC50, α-toxin production",S. epidermidis (51625),0.5 µg/mL
same,"IC50, α-toxin production",S. haemolyticus,0.7 µg/mL
same,Inhibition of TSST-1,S. aureus [2],2.0 µg/mL
same,Inhibition of RNA III activation,RNAIII,2.9 (3) μg/ml
same,Inhibition of α-Hemolysin production,S. aureus [3],0.9 (5) μg/ml
same,Inhibition of α-toxin production (in words),S. aureus [3],inhibited α-toxin production
same,"IC50, α-toxin production",S. warneri,0.6 µg/mL
O=C(O)[C@H]1c2ccccc2CCN1C(=O)OCC1c2ccccc2-c2ccccc21 [Reference #16],"IC50, α-toxin production",S. epidermidis (51625),0.5 µg/mL
same,"IC50, α-toxin production",S. haemolyticus,0.6 µg/mL
same,Inhibition of TSST-1,S. aureus [2],4.0 µg/mL
same,Inhibition of RNA III activation,RNAIII,3.5 (3) μg/ml
same,Inhibition of α-Hemolysin production,S. aureus [3],1.3 (3) μg/ml
same,Inhibition of α-toxin production (in words),S. aureus [3],inhibited α-toxin production
same,"IC50, α-toxin production",S. warneri,0.6 µg/mL
"O=C(N[C@@H](Cc1cn(C(c2ccccc2)(c2ccccc2)c2ccccc2)cn1)C(=O)O)OCC1c2ccccc2-c2ccccc21 [Reference #29, Fmoc-L-His(Trt)-OH]",Inhibition of TSST-1,S. aureus [2],4.0 µg/mL
same,Inhibition of RNA III activation,RNAIII,3.7 (3) μg/ml
same,Inhibition of α-Hemolysin production,S. aureus [3],2.7 (3) μg/ml
"O=C(N[C@@H](Cc1ccccc1)C(=O)O)OCC1c2ccccc2-c2ccccc21 [Reference #32, Fmoc-L-Phe-OH]",Inhibition of RNA III activation,RNAIII,>2.5 µg/mL
same,Inhibition of α-Hemolysin production,S. aureus [3],1.3 µg/mL
"O=C(N[C@@H](Cc1c[nH]c2ccccc12)C(=O)O)OCC1c2ccccc2-c2ccccc21 [Reference #34, Fmoc-L-Trp-OH]",Inhibition of RNA III activation,RNAIII,>2.5 µg/mL
same,Inhibition of α-Hemolysin production,S. aureus [3],9.0 µg/mL
"CC(C)[C@H](NC(=O)OCC1c2ccccc2-c2ccccc21)C(=O)O [Reference #38, Fmoc-L-Val-OH]",Inhibition of RNA III activation,RNAIII,>2.5 µg/mL
same,Inhibition of α-Hemolysin production,S. aureus [3],1.5 µg/mL
"CC(C)(C)OC(=O)n1cc(C[C@H](N)C(=O)O)c2ccccc21 [Reference #45, H-L-Trp(Boc)-OH]",Inhibition of RNA III activation,RNAIII,>10.0 µg/mL
same,Inhibition of α-Hemolysin production,S. aureus [3],>50 µg/mL
"N[C@@H](Cc1c[nH]c2ccccc12)C(=O)O [Reference #46, H-L-Trp-OH]",Inhibition of TSST-1,S. aureus [2],>10.0 µg/mL
same,Inhibition of RNA III activation,RNAIII,>10.0 (3) μg/ml
"O=C(NCCCC[C@H](NC(=O)OCC1c2ccccc2-c2ccccc21)C(=O)O)OCc1ccccc1 [Reference #69, Fmoc-L-Lys(Z)-OH]",Inhibition of RNA III activation,RNAIII,4.7 (3) μg/ml
same,Inhibition of α-Hemolysin production,S. aureus [3],2.8 (4) μg/ml
"O=C(N[C@@H](Cc1ccc(Br)cc1)C(=O)O)OCC1c2ccccc2-c2ccccc21 [Reference #73, Fmoc-4-bromo-L-phenylalanine]",IC50,S. aureus [1]; [7],1.7 µg/mL
"Cc1ccc(C[C@H](NC(=O)OCC2c3ccccc3-c3ccccc32)C(=O)O)cc1 [Reference #74, Fmoc-4-methyl-L-phenylalanine]",IC50,S. aureus [1]; [7],2.3 µg/mL
"O=C(N[C@@H](CC1CCCCC1)C(=O)O)OCC1c2ccccc2-c2ccccc21 [Reference #82, Fmoc-beta-cyclohexyl-L-alanine]",IC50,S. aureus [1]; [7],4 µg/mL
"O=C(N[C@@H](Cc1cccs1)C(=O)O)OCC1c2ccccc2-c2ccccc21 [Reference #83, Fmoc-beta-(2-thienyl)-L-alanine]",IC50,S. aureus [1]; [6],25 µg/mL
same,IC50,S. aureus [1]; [7],25 µg/mL
"O=C(NC1(C(=O)O)CCCCC1)OCC1c2ccccc2-c2ccccc21 [Reference #86, Fmoc-1-amino-1-cyclohexane carboxylic acid]","IC50, α-toxin production",S. epidermidis (51625),0.4 µg/mL
same,"IC50, α-toxin production",S. haemolyticus,0.6 µg/mL
same,Inhibition of TSST-1,S. aureus [2],10.0 µg/mL
same,Inhibition of RNA III activation,RNAIII,3.0 (3) μg/ml
same,Inhibition of α-Hemolysin production,S. aureus [3],2.1 (3) μg/ml
same,Inhibition of α-toxin production (in words),S. aureus [3],inhibited α-toxin production
same,"IC50, α-toxin production",S. warneri,0.6 µg/mL
"O=C(O)[C@@H]1CC[C@H](c2ccccc2)N1C(=O)OCC1c2ccccc2-c2ccccc21 [Reference #113, (2S,5R)-Fmoc-5-phenyl-pyrrolidine-2-carboxylic acid]","IC50, α-toxin production",S. epidermidis (51625),0.5 µg/mL
same,"IC50, α-toxin production",S. haemolyticus,0.7 µg/mL
same,Inhibition of TSST-1,S. aureus [2],6.0 µg/mL
same,Inhibition of RNA III activation,RNAIII,3.0 (1) μg/ml
same,"IC50, α-toxin production",S. aureus [3],0.9 µg/mL
same,Inhibition of α-Hemolysin production,S. aureus [3],1.7 (5) μg/ml
same,Inhibition of α-toxin production (in words),S. aureus [3],inhibited α-toxin production
same,"IC50, α-toxin production",S. warneri,0.6 µg/mL
"O=C(N[C@@H](C/C=C/c1ccccc1)C(=O)O)OCC1c2ccccc2-c2ccccc21 [Reference #124, Fmoc-L-styrylalanine]","IC50, α-toxin production",S. epidermidis (51625),0.6 µg/mL
same,"IC50, α-toxin production",S. haemolyticus,0.5 µg/mL
same,Inhibition of TSST-1,S. aureus [2],10.0 µg/mL
same,Inhibition of RNA III activation,RNAIII,2.9 (1) μg/ml
same,Inhibition of α-Hemolysin production,S. aureus [3],2.0 (4) μg/ml
same,Inhibition of α-toxin production (in words),S. aureus [3],inhibited α-toxin production
same,"IC50, α-toxin production",S. warneri,0.7 µg/mL
"O=C(O)CC[C@H](Cc1ccccc1)NC(=O)OCC1c2ccccc2-c2ccccc21 [Reference #126, (R)-Fmoc-4-amino-5-phenyl-pentanoic acid]",Inhibition of RNA III activation,RNAIII,9.0 (2) μg/ml
same,Inhibition of α-Hemolysin production,S. aureus [3],1.7 (4) μg/ml
"N[C@@H](Cc1c[nH]c2ccccc12)C(=O)O [Trp, reference compound]",% Survival at 24 hr.,S. aureus [4]; 1 mg/kg,0%
same,% Survival at 24 hr.,S. aureus [4]; 5 mg/kg,33%
"C[C@@H](O)[C@H](NC(=O)[C@H](Cc1cn(C(=O)Sc2ccccc2)c2ccccc12)NC(=O)[C@@H]1CCCN1C(=O)[C@H](CO)NC(=O)[C@H](Cc1ccc(O)cc1)NC(=O)OCC1c2ccccc2-c2ccccc21)C(=O)N[C@@H](CC(N)=O)C(=O)N[C@@H](Cc1ccccc1)C(=O)O [VIF-1, (Fmoc-Tyr)-Ser-Pro-Trp(phenylthiocarbamate)-Thr-Asn-Phe] (Fmoc-YSPW(X1)TNF-OH; C-terminus assumed)",Lowest concentration that suppressed release of TSST-1,S. aureus [2],0.2 µg/mL
same,Inhibition of RNA III activation,RNAIII,1.5 µg/mL
same,% Survival at 24 hr.,S. aureus [4]; 1 mg/kg,67%
same,% Survival at 24 hr.,S. aureus [4]; 3 mg/kg,83%
same,% Survival at 24 hr.,S. aureus [4]; 15 mg/kg,83%
same,Number of mice that survived at 24 hours post-injection (in words),"S. aureus [4]; VIF-1 3 or 15 mg/kg, FTB 1, 2 or 5 mg/kg",effective to significantly increase the number of mice that survived
same,% Survival at 24 hr.,S. aureus [5]; 6 mg/kg IP,13%
same,% Survival at 24 hr.,S. aureus [5]; 15 mg/kg IP,50%
same,% Survival at 24 hr.,S. aureus [5]; 20 mg/kg IP,67%
same,Number of mice that survived at 24 hours post-injection relative to vehicle (in words),"S. aureus [5]; VIF-1 20 or 15 mg/kg, FTB 10 mg/kg",effective to significantly increase the number of mice that survived
same,"IC50, α-toxin production",S. aureus [3],0.6 µg/mL
same,Inhibition of α-Hemolysin production,S. aureus [3],1.1 µg/mL
same,Inhibition of α-toxin production (in words),S. aureus [3],inhibited α-toxin production
same,"IC50, α-toxin production",S. warneri,0.1 µg/mL
same,IC50 for inhibition of hemolysin production,S. warneri,0.10 µg/mL
same,Inhibition of hemolysin production (in words),S. warneri,potently inhibited
"COc1cccc(OC)c1C(=O)N[C@@H]1C(=O)N2[C@@H]1SC(C)(C)[C@@H]2C(=O)O [methicillin, reference compound]",% Survival at 24 hr.,S. aureus [5]; 1 mg/kg IP,17%
same,% Survival at 24 hr.,S. aureus [5]; 10 mg/kg IP,50%
same,% Survival at 24 hr.,S. aureus [5]; 100 mg/kg IP,100%
"CN[C@H](CC(C)C)C(=O)N[C@H]1C(=O)N[C@@H](CC(N)=O)C(=O)N[C@H]2C(=O)N[C@H]3C(=O)N[C@H](C(=O)N[C@H](C(=O)O)c4cc(O)cc(O)c4-c4cc3ccc4O)[C@H](O)c3ccc(c(Cl)c3)Oc3cc2cc(c3O[C@@H]2O[C@H](CO)[C@@H](O)[C@H](O)[C@H]2O[C@H]2C[C@](C)(N)[C@H](O)[C@H](C)O2)Oc2ccc(cc2Cl)[C@H]1O [vancomycin, reference compound]",% Survival at 24 hr.,S. aureus [5]; 0.5 mg/kg IP,17%
same,% Survival at 24 hr.,S. aureus [5]; 5 mg/kg IP,50%
same,% Survival at 24 hr.,S. aureus [5]; 50 mg/kg IP,100%
